pIC50: −log10 of the molar value.
Tested on: Plasmodium falciparum
Assay: Antimalarial activity against Plasmodium falciparum 3D7 infected in erythrocytes incubated for 48 hrs by [3H]hypoxanthine incorporation assay
Format: functional, organism-based

First: CN(Cc1ccccc1Cl)C(=O)n1cnc(S(=O)(=O)[C@@H]2C[C@H]3CC[C@@H]2C3)n1
Second: CN(Cc1ccccc1F)C(=O)n1cnc(S(=O)(=O)[C@@H]2C[C@H]3CC[C@@H]2C3)n1
The pIC50 of the first is 0.60 log units lower: 6.14 for the first, 6.74 for the second. The second is the more potent here.

`CN(Cc1cccc(Cl)c1)C(=O)n1cnc(S(=O)(=O)[C@@H]2C[C@H]3CC[C@@H]2C3)n1` and `CN(Cc1cccc(F)c1)C(=O)n1cnc(S(=O)(=O)[C@@H]2C[C@H]3CC[C@@H]2C3)n1` are within 0.2 log units of each other in pIC50: 6.51 for the first, 6.43 for the second.

Compared with `CN(Cc1ccc(F)cc1)C(=O)n1cnc(S(=O)(=O)[C@@H]2C[C@H]3CC[C@@H]2C3)n1`, `CN(Cc1ccc(Cl)cc1)C(=O)n1cnc(S(=O)(=O)[C@@H]2C[C@H]3CC[C@@H]2C3)n1` is 0.49 log units lower in pIC50: 6.71 for the first, 6.22 for the second. The first is the more potent here.

Compared with `CCN(C)C(=O)n1cnc(S(=O)(=O)c2c(C)cc(C)cc2C)n1`, `CCN(C)C(=O)n1cnc(Sc2c(C)cc(C)cc2C)n1` is 1.07 log units lower in pIC50: 6.79 for the first, 5.72 for the second. The first is the more potent here.

First: CN(C(=O)n1cnc(S[C@@H]2C[C@H]3CC[C@@H]2C3)n1)c1ccccc1
Second: CN(C)C(=O)n1cnc(S[C@@H]2C[C@H]3CC[C@@H]2C3)n1
The pIC50 of the first is lower: < 5.30 for the first, 6.85 for the second.

Compared with `COc1cccc(CN(C)C(=O)n2cnc(S(=O)(=O)[C@@H]3C[C@H]4CC[C@@H]3C4)n2)c1`, `CN(Cc1cccc(C#N)c1)C(=O)n1cnc(S(=O)(=O)[C@@H]2C[C@H]3CC[C@@H]2C3)n1` is 1.98 log units lower in pIC50: 7.44 for the first, 5.46 for the second.

First: O=C(N1CCCC1)n1cnc(SCc2ccccc2)n1
Second: O=C(N1CCCCC1)n1cnc(S(=O)(=O)[C@@H]2C[C@H]3CC[C@@H]2C3)n1
The pIC50 of the first is 0.36 log units lower: 5.84 for the first, 6.20 for the second.

Going from `CC(C)N(C)C(=O)n1cnc(S(=O)(=O)c2ccc(Cl)cc2)n1` to `CN(C)C(=O)n1cnc(S(=O)(=O)c2ccc(Cl)cc2)n1`, the pIC50 falls from 7.72 to 6.24 (1.48 log units). The first is the more potent here.

Compared with `CN(Cc1cccc(C(F)(F)F)c1)C(=O)n1cnc(S(=O)(=O)[C@@H]2C[C@H]3CC[C@@H]2C3)n1`, `CN(Cc1ccc(C(F)(F)F)cc1)C(=O)n1cnc(S(=O)(=O)[C@@H]2C[C@H]3CC[C@@H]2C3)n1` is 0.53 log units higher in pIC50: 5.73 for the first, 6.26 for the second. The second is the more potent here.

First: CC(=O)c1ccc(CN(C)C(=O)n2cnc(S(=O)(=O)[C@@H]3C[C@H]4CC[C@@H]3C4)n2)cc1
Second: CN(Cc1ccc(S(C)(=O)=O)cc1)C(=O)n1cnc(S(=O)(=O)[C@@H]2C[C@H]3CC[C@@H]2C3)n1
The pIC50 of the first is 0.76 log units higher: 7.30 for the first, 6.54 for the second.

First: CN(Cc1ccccc1C(F)(F)F)C(=O)n1cnc(S(=O)(=O)[C@@H]2C[C@H]3CC[C@@H]2C3)n1
Second: CN(Cc1cccnc1)C(=O)n1cnc(S(=O)(=O)[C@@H]2C[C@H]3CC[C@@H]2C3)n1
The pIC50 of the first is 1.17 log units lower: 5.90 for the first, 7.07 for the second.

First: CCN(CC)C(=O)n1cnc(S(=O)(=O)[C@@H]2C[C@H]3CC[C@@H]2C3)n1
Second: CCN(C)C(=O)n1cnc(S(=O)(=O)[C@@H]2C[C@H]3CC[C@@H]2C3)n1
The pIC50 of the first is 0.80 log units lower: 6.23 for the first, 7.03 for the second.

Going from `COc1ccc(CN(C)C(=O)n2cnc(S(=O)(=O)[C@@H]3C[C@H]4CC[C@@H]3C4)n2)c(OC)c1` to `COc1ccc(CN(C(=O)n2cnc(S(=O)(=O)[C@@H]3C[C@H]4CC[C@@H]3C4)n2)C(C)C)cc1`, the pIC50 falls from 7.52 to 6.08 (1.44 log units). The first is the more potent here.

Going from `O=C(N1CCc2ccccc2C1)n1cnc(S(=O)(=O)[C@@H]2C[C@H]3CC[C@@H]2C3)n1` to `CN(C)C(=O)n1cnc(S(=O)(=O)[C@@H]2C[C@H]3CC[C@@H]2C3)n1`, the pIC50 rises from < 5.30 to 7.33. The second is the more potent here.

Going from `CCN(CC)C(=O)n1cnc(S[C@@H]2C[C@H]3CC[C@@H]2C3)n1` to `CCCN(C)C(=O)n1cnc(S(=O)(=O)[C@@H]2C[C@H]3CC[C@@H]2C3)n1`, the pIC50 rises from 5.65 to 6.84 (1.19 log units).

Going from `Cc1nc(S(=O)(=O)[C@@H]2C[C@H]3CC[C@@H]2C3)nn1C(=O)N(C)C(C)C` to `CC(C)N(C)C(=O)n1cnc(S(=O)(=O)C2C3CC4CC(C3)CC2C4)n1` (centres undefined), the pIC50 rises from < 5.40 to 8.10.

Going from `CC(C)N(C)C(=O)n1cnc(S(=O)(=O)C2CCCCC2)n1` to `COc1ccc(CN(C(=O)n2cnc(S(=O)(=O)[C@@H]3C[C@H]4CC[C@@H]3C4)n2)C2CC2)cc1`, the pIC50 falls from 7.55 to 5.99 (1.56 log units).
